Source: patent US4686230A, “Picoline derivative useful as gastric acid secretion inhibitors” (Byk Gulden Lomberg Chemische Fabrik GmbH, priority 1984, dated 1987)

Experiments:
gastric secretion (HCl) = experiment: Inhibition of the HCl secretion of the stomach, Shay rats; assay type: in vivo, rat; conditions: total 4 h; for ED25 / ED50: Rattus norvegicus, po, orally; for ED25: dose which reduces HCl secretion by 25% vs control; for ED50: dose which reduces HCl secretion by 50% vs control; for % inhibition of the HCl secretion: after administration of the antiulcer ED50
Method: (§1) The investigated compounds according to the invention have been given numbers as follows:
(§2) The effects of the investigated compounds on the formation of stomach lesions induced by pylorus ligature and oral administration of 100 mg/kg of acetylsalicylic acid and the gastric secretion (HCl) for 4 h in rats (so-called Shay rats) are shown in the table which follows.
(§3) + ED25 and ED50 = dose which reduces the lesion index and the HCl
(§4) secretion (Σ4 h) of the rat stomach in the treated group by 25 and
(§5) 50% respectively, as compared with the control group.
++ after administration of the antiulcer ED50
(§6) The ulcers are provoked in rats (female, 180-200 g, 4 animals in each cage on a high grid) kept fasting for 24 hours by pylorus ligature (under diethyl ether anaesthesia) and oral administration of 100 mg/10 ml/kg of acetylsalicylic acid. The substances to be tested are administered orally (10 ml/kg) one hour before the pylorus ligature. The wounds are closed by means of Michel clamps. 4 hours later, the animals are killed under ether intoxication by atlas dislocation and the stomach is resected. The stomach is opened longitudinally and fixed on a cork plate, after first determining the quantity of the secreted gastric juice (volume) and later its HCl content (titration with sodium hydroxide solution); the number and size (=diameter) of existing ulcers was determined by means of a stereomicroscope at 10-fold magnification. The product of the degree of severity (according to the points rating below) and of the number of ulcers is used as the individual lesion index.
(§7) The reduction in the mean lesion index of each treated group as compared with that of the control group (=100%) is taken as the measure of the anti-ulcerogenic effect.

[1] = system: stomach lesions induced by pylorus ligature and oral administration of 100 mg/kg of acetylsalicylic acid; experiment: Protective action on the stomach (anti-ulcerogenic action), Shay rats: pylorus ligature + acetylsalicylic acid; assay type: in vivo; conditions: Rattus norvegicus, 1 h, orally, dose which reduces the mean lesion index by 50% vs control, given one hour before pylorus ligature, read-out: Protective action on the stomach (rats), inhibition of the lesion index, ED50
Method: as §1, §2, §3, §4, §5
The anti-ulcerogenic action was tested by the method of so-called Shay rats:
as §6, with “index. […]” for “index.”
as §7

Row | Structure (SMILES) | ED25 (gastric secretion (HCl)) [mg/kg] | ED50 (gastric secretion (HCl)) [mg/kg] | % inhibition of the HCl secretion (gastric secretion (HCl)) | ED50 [1] [mg/kg]
1 | COc1ccnc(C[S+]([O-])c2nc3c(C)c(OC(F)F)c(C)cc3[nH]2)c1C (stereo not shown) [Serial No. 1, 5-Difluoromethoxy-2-[(4-methoxy-3-methyl-2-pyridyl)methylsulphinyl]-4,6-dimethyl-1H-benzimidazole] | 0.5 | 1.1 | 22% | 0.5
2 | COc1ccnc(C(C)[S+]([O-])c2nc3cc(OC(F)F)c(OC)cc3[nH]2)c1 (stereo not shown) [Serial No. 2, 5-Difluoromethoxy-6-methoxy-2-{[1-(4-methoxy-2-pyridyl)ethyl]sulphinyl}-1H-benzimidazole] | ~1 | ~2 | ~ 20% | 0.6
3 | COc1ccnc(C(C)[S+]([O-])c2nc3cc(OC(F)(F)C(F)F)ccc3[nH]2)c1 (stereo not shown) [Serial No. 3, 5-(1,1,2,2-Tetrafluoroethoxy)-2-{[1-(4-methoxy-2-pyridyl)ethyl]sulphinyl}-1H-benzimidazole] | 0.35 | 0.8 | 35% | 0.5
4 | COc1ccnc(C[S+]([O-])c2nc3c(C)c(OC(F)F)c(C)cc3[nH]2)c1OC (stereo not shown) [Serial No. 4, 5-Difluoromethoxy-2-[(3,4-dimethoxy-2-pyridyl)-methylsulphinyl]-4,6-dimethyl-1H-benzimidazole] | ~1.3 | ~2 | 10% | ~1
5 | COc1ccnc(C[S+]([O-])c2nc3cc(OC(F)(F)C(F)Cl)ccc3[nH]2)c1 (stereo not shown) [Serial No. 6, 5-(2-Chloro-1,1,2-trifluoroethoxy)-2-[(4-methoxy-2-pyridyl)methylsulphinyl]-1H-benzimidazole] | 0.55 | 1.3 | 25% | 0.55
6 | COc1ccnc(C(C)[S+]([O-])c2nc3cc(OC(F)(F)C(F)Cl)ccc3[nH]2)c1 (stereo not shown) [Serial No. 7] | 0.4 | 0.8 | 40% | 0.6
7 | COc1ccnc(CSc2nc3c(C)c(OC(F)F)c(C)cc3[nH]2)c1C [Serial No. 8, 5-Difluoromethoxy-2-[(4-methoxy-3-methyl-2-pyridyl)methylthio]-4,6-dimethyl-1H-benzimidazole] | 1 | 1 | 15% | 0.7
8 | COc1ccnc(C(C)Sc2nc3cc(OC(F)F)c(OC)cc3[nH]2)c1 (stereo not shown) [Serial No. 9, 5-Difluoromethoxy-6-methoxy-2-{[1-(4-methoxy-2-pyridyl)ethyl]thio}-1H-benzimidazole] | < 1 | ~4 | 35% | 1.7
9 | COc1ccnc(C(C)[S+]([O-])c2nc3cc4c(cc3[nH]2)OC(F)(F)O4)c1 (stereo not shown) [compound 5] | 1 | 1.7 | 25% | 1
10 | COc1ccnc(C[S+]([O-])c2nc3cc(OC(F)(F)C(F)Cl)ccc3[nH]2)c1C (stereo not shown) [compound 10] | 0.4 | 0.8 | 27% | 0.4
